How the values were obtained:
L. donovani TryR = target: T1, L. donovani TryR (Leishmania donovani, UniProt P39050); assay: biochemical; settings: for Type of inhibition: Lineweaver-Burk double reciprocal plot, varying T[S]2
T1 construct: endogenous in cells; host or cells: L. donovani-iRFP (LV9) axenic amastigotes, crude cell extract
Method: The activity of L. donovani TryR was measured in the presence of different concentrations of nitrofurans according to the protocol previously described ([Melcón-Fernández et al., 2023]). Briefly, 1 × 10^10 L. donovani-iRFP axenic amastigotes were washed twice in PBS and lysed with a solution containing 1 mM EDTA, 40 mM HEPES, 50 mM Tris HCl pH 7.5, 2 % (v/v) Triton X-100 and Pierce™ Protease Inhibitors Mini Tablets (ThermoFisher Scientific, Waltham, MA, USA). Cell extracts were prepared by mechanical disruption of the cells with 0.5 mm diameter glass beads (Merck, Darmstadt, Germany) and the supernatant obtained by centrifugation at 10,000 rcf for 5 min at 4 °C was used to measure TryR activity in 96-well plates. […] Cell extracts diluted in Tris HCl pH 7.5 (0.43 μg of total protein in 50 μL) were added to launch the reaction. The negative control consisted of 2.5 % DMSO, whereas the blank reaction included the TryR assay solution without T [S]2. […] To determine steady-state conditions, enzymatic activity was measured at 412 nm (ε = 14,150 M^−1 cm^−1) for a period of up to 120 min (with 5 min intervals) at 26 °C in a Varioskan Lux spectrophotometer (ThermoFisher Scientific, Waltham, MA, USA). The experiment was carried out in triplicate and included three technical replicates.

[1] = Cytotoxicity in bone marrow-differentiated macrophages, alamarBlue, 72 h; type: cell-based; settings: mouse
Method: (§1) For cytotoxicity tests, several mammalian cell lines were used. […] Primary cell cultures were also used to evaluate cytotoxicity. […] BMDM cells were differentiated for one week with 30 % […] from L929 cell line.
(§2) The in vitro cytotoxicity of the selected nitrofurans was evaluated in HepG2, RAW 264.7 cells, splenocytes and BMDM. In each well of a 96-well microtitre plate, 100 μL containing 10,000 HepG2 or RAW 264.7 cells were incubated for 24h at 37 °C and 5 % CO2 to allow the cells to settle. For primary cells, 100 μL containing 100,000 BMDM or 1,000,000 splenocytes were added to each well. Subsequently, […] of one-half serial dilutions of each compound diluted in DMEM (for HepG2 cells), RPMI medium (for RAW cells), splenocyte medium (for splenocytes) or BMDM medium supplemented with 10 % GM-CSF (for BMDM), were added to each well. The cytotoxic effect of the compounds was measured after 72 h of incubation at 37 °C and 5 % CO2. For this purpose, a 10 % (v/v) of the alamarBlue™ cell viability reagent (Invitrogen, Fisher Scientific International Inc., Pittsburgh, PA, USA) was added, and the reaction was incubated for 4 h at 37 °C and 5 % CO2. Fluorescence was measured using a Varioskan Lux spectrophotometer (ThermoFisher Scientific, Waltham, MA, USA). Positive controls consisting of 0.1 % (v/v) H2O2, and negative controls, consisting of 0.1 % (v/v) DMSO, were also included on each plate.
(§3) All experiments were carried out in triplicate and included at least three technical replicates. […] The SI was calculated from the CC50/EC50 ratio.

[2] = test system: L. donovani-iRFP axenic amastigotes; assay: Antileishmanial effect on axenic amastigotes (iRFP fluorescence viability, 72 h); type: cell-based; settings: Leishmania donovani
Method: (§4) For efficacy studies, L. donovani-iRFP, a genetically modified strain of L. donovani LV9 constitutively expressing the gene encoding the infrared fluorescent protein (iRFP) ([Melcón-Fernández et al., 2023]), was used. This strain was grown as promastigotes in Schneider's insect medium (Sigma-Aldrich, Merck, Darmstadt, Germany) supplemented with 20 % (v/v) foetal bovine serum (FBS) (Gibco, ThermoFisher Scientific, Waltham, MA, USA) and […] antibiotic cocktail (100 U/mL penicillin and 100 μg/mL streptomycin) (Hyclone, ThermoFisher Scientific, Waltham, MA, USA) at 26 °C until mice were infected ([Carballeira et al., 2016]). Axenic and intramacrophage amastigotes were isolated from six-to eight-week-old female Balb/c mice (see below) that had been infected intraperitoneally with 1.5 × 10^9 metacyclic L. donovani-iRFP promastigotes. To obtain axenic amastigotes, bone marrow was extracted from the femur and tibia of 8- to 10-week-old infected mice and passed through a 100 μm cell strainer. After centrifugation at 3500 rcf for 10 min at room temperature, cell suspensions were resuspended in medium containing 15 mM KCl; 136 mM KH2PO4; 10 mM K2HPO4.3H2O; 0.5 mM MgSO4.7H2O; 24 mM NaHCO3; 22 mM glucose; 1 mM glutamine, 1 × RPMI 1640 vitamin mix (Sigma-Aldrich, Merck, Darmstadt, Germany), 10 mM folic acid, 100 mM adenosine, 1 × RPMI amino acid mix (Sigma-Aldrich, Merck, Darmstadt, Germany), 5 mg/mL hemin, 25 mM 2-morpholinoethanesulfonic acid (MES) pH 5.6, supplemented with 10 % FBS (Gibco, ThermoFisher Scientific, Waltham, MA, USA) and antibiotic cocktail, and incubated at 37 °C and 5 % CO2. To obtain intramacrophage amastigotes, spleens from infected Balb/c mice were cut into pieces, ground with 2 mg/mL collagenase D (Merck, Darmstadt, Germany) and passed through a 100 μm cell strainer. The splenocyte-enriched cell suspension containing intramacrophage amastigotes was resuspended in RPMI medium (Gibco, Fisher Scientific International Inc., Pittsburgh, PA, USA) supplemented with 20 % FBS, 1 mM sodium pyruvate, 24 mM NaHCO3, 2 mM L-glutamine, 1 × RPMI vitamins, 25 mM HEPES pH 7.2 and antibiotic cocktail ([Ashok et al., 2016]).
(§5) The antileishmanial effect of the nitrofurans selected in this study was tested both in vitro on axenic L. donovani-iRFP amastigotes and ex vivo on intramacrophage amastigotes according to previously published methods ([Melcón-Fernández et al., 2023], [2024]; [Andrés-Rodríguez et al., 2024]). Assays were performed in a final volume of […] containing 20,000 axenic amastigotes or a number of L. donovani-iRFP-infected murine splenocytes representing 150,000 relative fluorescence units (RFU), in each well of a black 384-well microtiter plate with optical bottom. In addition, 40 μL of one-half serial dilutions of each compound in amastigotes culture medium (for axenic amastigotes) or in supplemented RPMI medium (for intramacrophage amastigotes) were added to each well. Positive (amphotericin B at a final concentration of 18 μM) and negative (0.1 % v/v DMSO) controls were included on each plate. The plates were incubated at 37 °C and 5 % CO2 for a maximum of 72 h. Fluorescence emitted by viable L. donovani-iRFP was measured on an Odyssey infrared imaging system (Li-Cor, NE, USA).
as §3

[3] = Cytotoxicity, alamarBlue, 72 h; type: cell-based, murine; settings: mouse
Method: as §1, §2, §3

[4] = test system: L. donovani-iRFP axenic amastigotes; assay: ROS production by axenic amastigotes (DCFH-DA, flow cytometry); type: cell-based, Leishmania donovani
Method: To assess ROS production in L. donovani-iRFP, axenic amastigotes were treated with nitrofurans at the concentration equivalent to their EC50 calculated in viability experiments. As positive control of oxidative stress induction, cultures were treated with 0.01 % H2O2 (v/v), whereas 0.03 % (v/v) DMSO was added as negative control. After an incubation period of 3 h at 37 °C, cells were harvested by centrifugation at 3500 rcf for 10 min, washed in phosphate-buffered saline (PBS), centrifuged again and resuspended in PBS. Cells were labeled with 5 μM 2′,7′-dichlorofluorescein diacetate (DCFH-DA, MedChemExpress) for 30 min at 37 °C. Then, cells were centrifuged at 3500 rcf for 5 min, washed, and resuspended in PBS. The cell suspension was stored at 4 °C until the analysis by flow cytometry, which was performed in a CytoFLEX SRT (Beckman Coulter). The experiment was carried out in triplicate and included three technical replicates.

[5] = test system: L. donovani-iRFP intramacrophage amastigotes; assay: Ex vivo antileishmanial effect on intramacrophage amastigotes (infected murine splenocytes, iRFP fluorescence, 72 h); type: cell-based; settings: Leishmania donovani, Splenocyte
Method: as §4, §5, §3

[6] = Cytotoxicity, alamarBlue, 72 h; type: cell-based; settings: human
Method: as §1, §2, §3

[7] = Cytotoxicity in primary splenocytes, alamarBlue, 72 h; type: cell-based; settings: mouse
Method: as §1, §2, §3

[8] = RAW 264.7 cells, 72 h, alamarBlue, read-out: RAW 264.7 cells CC50
[9] = compound at its axenic EC50, 3 h
[10] = HepG2 cells, 72 h, alamarBlue, read-out: HepG2 cells CC50
[11] = positive control 0.01 % (v/v), 3 h

T1 sequence (P39050 whole entry): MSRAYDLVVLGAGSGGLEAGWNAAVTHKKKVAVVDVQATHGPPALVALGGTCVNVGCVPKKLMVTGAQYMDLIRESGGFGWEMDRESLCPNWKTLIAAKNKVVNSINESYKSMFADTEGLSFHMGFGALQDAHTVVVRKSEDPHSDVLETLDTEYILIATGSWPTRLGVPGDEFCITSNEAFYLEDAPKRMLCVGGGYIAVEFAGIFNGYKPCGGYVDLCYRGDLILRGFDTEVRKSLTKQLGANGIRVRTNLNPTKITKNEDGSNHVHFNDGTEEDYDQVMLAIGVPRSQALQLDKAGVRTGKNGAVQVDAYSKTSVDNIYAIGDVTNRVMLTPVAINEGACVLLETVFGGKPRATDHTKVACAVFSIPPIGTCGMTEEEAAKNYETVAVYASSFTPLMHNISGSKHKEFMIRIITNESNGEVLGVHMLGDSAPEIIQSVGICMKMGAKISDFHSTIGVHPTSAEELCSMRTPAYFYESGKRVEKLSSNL

Compound: CC1CS(=O)(=O)CCN1/N=C/c1ccc([N+](=O)[O-])o1 (stereo not drawn) [Nifurtimox]
- Ki (L. donovani TryR): 33.5 ± 6.93 µM
- Type of inhibition (L. donovani TryR): Uncompetitive
- CC50 at 72 h ([1]; 72 h, alamarBlue, uninfected mice, read-out: BMDM CC50): 60.2 ± 4.79 µM
- EC50 [2]: 3.96 ± 0.37 µM
- CC50 at 72 h [3, 8]: 50.5 ± 2.25 µM
- Negative ROS (unstressed population) [4, 9]: 31.9%
- Positive ROS (stressed population) [4, 9]: 68.1%
- EC50 [5]: 1 ± 0.07 µM
- CC50 at 72 h [6, 10]: 84.9 ± 12.4 µM
- CC50 at 72 h ([7]; 72 h, alamarBlue, uninfected mice, read-out: Splenocytes CC50): 37.8 ± 6.12 µM

Compound: O=C1CN(/N=C/c2ccc([N+](=O)[O-])o2)C(=O)N1 [Nitrofurantoin]
- Ki (L. donovani TryR): 31.2 ± 4.94 µM
- Type of inhibition (L. donovani TryR): Uncompetitive
- CC50 at 72 h ([1]; bone marrow-differentiated macrophages (BMDM), 72 h, alamarBlue, uninfected mice, read-out: BMDM CC50): 56.3 ± 9.06 µM
- EC50 [2]: 1.46 ± 0.08 µM
- CC50 at 72 h [3, 8]: 37.2 ± 7.05 µM
- Negative ROS (unstressed population) [4, 9]: 23.9%
- Positive ROS (stressed population) [4, 9]: 76.1 ± 11.6%
- Positive ROS (stressed population) ([4]; compound at its axenic EC50, 3 h, listed as NITROFURANTOIN): 76.1%
- EC50 [5]: 2.1 ± 0.26 µM
- CC50 at 72 h [6, 10]: 32 ± 4.58 µM
- CC50 at 72 h ([7]; primary splenocytes from healthy, non-infected mice, 72 h, alamarBlue, uninfected mice, read-out: Splenocytes CC50): 33.2 ± 3.5 µM

Compound: CC(=O)OC(OC(C)=O)c1ccc([N+](=O)[O-])o1 [5-nitro-2-furaldehide diacetate, 5-Nitro-2-furaldehyde diacetate]
- Ki (L. donovani TryR): 77.2 ± 21.9 µM
- Type of inhibition (L. donovani TryR): Uncompetitive
- CC50 at 72 h [1]: 11.9 ± 0.46 µM
- EC50 [2]: 3.48 ± 0.09 µM
- CC50 at 72 h [3]: 15.6 ± 1.27 µM
- Negative ROS (unstressed population) [4, 9]: 31.1%
- Positive ROS (stressed population) [4, 9]: 68.9%
- EC50 [5]: 4.6 ± 0.26 µM
- CC50 at 72 h [6]: 24.1 ± 0.59 µM
- CC50 at 72 h [7]: 11 ± 0.28 µM

Compound: OO [H2O2]
- Negative ROS (unstressed population) [4, 11]: 28.5%
- Positive ROS (stressed population) [4, 11]: 71.5%

— article PMC12344264, “Mechanistic, in-silico and in vitro studies with nitrofurans reveal potent leishmanicidal activity and inhibition of trypanothione reductase” (International Journal for Parasitology: Drugs and Drug …, 2025)
